What was measured:
hCAI = system: hCAI; parameters: method as in PMID 12713833; conditions: pH 7.8; cited from earlier work
hCAII = system: hCAII; parameters: method as in PMID 12713833; conditions: pH 7.8; cited from earlier work
[1] = Esterase activity assay in whole-cell lysates; type: biochemical, human; conditions: kcat/KM vs unmodified isoform
[2] = Differential scanning fluorimetry; type: physicochemical, human
Method: The diminished activity of hCAII^S29E and hCAI^S30E can be attributed to protein unfolding or misfolding upon introduction of a charged residue close to the hydrophobic side of the ligand-binding pocket. The phosphomimic hCAII^S29E was only expressed as a soluble protein when using ArcticExpress E. coli at 10 °C but not with T7 Express or C43 (DE3) E. coli. In ArticExpress cells, a cold-adapted chaperonin is co-expressed to assist folding at low temperatures. In addition, hCAI^S30E expresses at a very low yield in the soluble fraction even with the ArcticExpress system, and below detectable levels in T7 Express or C43 (DE3) E. coli. Moreover, an S > E mutation at Ser29 in another cytosolic carbonic anhydrase isoform (hCAIII) destabilizes the protein and decreases the melting temperature from 59 °C to 43 °C in differential scanning fluorimetry (Figure S5).

CC(=O)Oc1ccc([N+](=O)[O-])cc1 [pNPA, p-nitrophenyl acetate]
Km (hCAI): 15.4 mM | Km (hCAII): 2.92 mM

hCAI S30E: human carbonic anhydrase I phosphomimic, Ser30 to Glu
fold decrease in catalytic activity compared to the respective unmodified isoform [1]: 2.7 fold

B1: hCAIII: cytosolic human carbonic anhydrase isoform III (protein, UniProt P07451 2-260, looked up)
Carbonic anhydrase 3: AKEWGYASHNGPDHWHELFPNAKGENQSPVELHTKDIRHDPSLQPWSVSYDGGSAKTILNNGKTCRVVFDDTYDRSMLRGGPLPGPYRLRQFHLHWGSSDDHGSEHTVDGVKYAAELHLVHWNPKYNTFKEALKQRDGIAVIGIFLKIGHENGEFQIFLDALDKIKTKGKEAPFTKFDPSCLFPACRDYWTYQGSFTTPPCEECIVWLLLKEPMTVSSDQMAKLRSLLSSAENEPPVPLVSNWRPPQPINNRVVRASFK
melting temperature [2]: 59 °C
